Assay results from US12390537B2, “Compositions of polymeric microdevices and methods of use thereof in cancer immunotherapy” (Massachusetts Institute of Technology, priority 2020, dated 2025).

Experiments:
Type in all cases: in vivo, mice
[1] = tested on: immune cells in TME of B16F10 melanoma tumors; assay: Flow cytometry of immune cells in B16F10 TME
Description: Mice bearing B16F10 tumors were treated with the following 4 experimental groups (n=8): untreated, 1×EPs, 3×cGAMP-S, and 1×cGAMP-S plus cGAMP-MPs, respectively (FIG. 4A). Tumors were collected at day 16 post tumor inoculation and cut into 50-100 mg small pieces in a 1.5 mL microcentrifuge tube. The tumors were lysed in radioimmunoprecipitation assay (RIPA) buffer (Sigma-Aldrich), homogenized, and centrifuged at 20130 rcf for 10 min. The protein content in the supernatant was quantified using a bicinchoninic acid protein assay kit (Thermo Fisher Scientific, MA, USA). Equal amounts of proteins (20 μg) were separated on a 4 to 15% gradient SDS-polyacrylamide gel (Bio-Rad, Hercules, CA) and electro-transferred to nitrocellulose membrane. The membranes were then blocked with 5% milk in tris-buffered saline supplemented with 0.05% Tween 20 and further incubated with GAPDH monoclonal antibody (Invitrogen, CA, cat. no. MA5-27912), phospho-TBK1/NAK (Ser172) (D52C2) Rabbit mAb (Cell Signaling Technology, cat. no. 5483S), or phospho-IRF-3 (S396) Rabbit mAb (Cell Signaling Technology, cat. no. 4947S) at 4° C. overnight. The membranes were then incubated with goat anti-rabbit IgG (H+L) Secondary Antibody, HRP (Invitrogen, cat. no. TG266717) for 1 h at room temperature. Protein bands were visualized by chemiluminescence using the ECL Western Blotting Substrate (Thermo Fisher Scientific, MA).
To stain the intracellular marker, e.g., IFN-γ, cells were pre-stimulated with cell stimulation cocktail (eBioscience, cat. no. 00-4970-93) for 4-6 h, fixed and permeabilized using fixation/permeabilization solution kit (BD, cat. no. 554714), and then stained with both anti-IFN-γ and other surface antibodies. Antibodies used for flow cytometry studies were anti-CD86-BUV395 (BD, cat. no. 564199), anti-CD45-BUV737 (BD, cat. no. 564880), anti-TCRβ-BV421 (Biolegend, cat. no. 109229), anti-NK1.1-BV605 (Biolegend, cat. no. 108739), anti-NK1.1-BV605 (Biolegend, cat. no. 108739), anti-CD8a-FITC (BD, cat. no. 553030), anti-CD4-PerCP/Cy5.5 (BD, cat. no. 550954), anti-CD62L-PE (Biolegend, cat. no. 104407), anti-CD19-PE/Cy7 (eBioscience, cat. no. 25-0193-81), anti-CD3-PE/594 (Biolegend, cat. no. 100245), anti-FOXP3-APC (eBioscience, cat. no. 17-5773-80), anti-CD11b-AF700 (Biolegend, cat. no. 201222), anti-CD8a-BV421 (Biolegend, cat. no. 100737), anti-Ly6g-BV510 (Biolegend, cat. no. 127633), anti-Siglec F-BV605 (BD, cat. no. 740388), anti-MHC II-BV786 (BD, cat. no. 743875), anti-Ly6c-AF488 (Biolegend, cat. no. 128021), anti-CD11c-PerCP/Cy5.5 (Biolegend, cat. no. 117327), anti-CD206-PE (Biolegend, cat. no. 141705), anti-CD197-PE/594 (Biolegend, cat. no. 120121), anti-F4/80-PE/Cy7 (Biolegend, cat. no. 123113), anti-CD200R3-APC (Biolegend, cat. no. 142207), anti-CD11b-AF700 (Biolegend, cat. no. 101222), and viability dye eFluor 780 (eBiosciecne, cat. no. 65-0865-14). Flow cytometry data were acquired on an LSRFortessa cell analyzer (BD) and analyzed using FlowJo software.

IFNγ+CD8+ T cells = assay: Flow cytometry of IFNγ+CD8+ T cells in serum, B16F10 model
Description: To stain the intracellular marker, e.g., IFN-γ, cells were pre-stimulated with cell stimulation cocktail (eBioscience, cat. no. 00-4970-93) for 4-6 h, fixed and permeabilized using fixation/permeabilization solution kit (BD, cat. no. 554714), and then stained with both anti-IFN-γ and other surface antibodies. […] Flow cytometry data were acquired on an LSRFortessa cell analyzer (BD) and analyzed using FlowJo software.
To study whether activation of STING in the TME triggers systemic antitumor immunity, mouse serum was collected from the antitumor efficacy study of B16F10 melanoma model (FIG. 3D) 21 and 28 days after tumor inoculation and analyzed by flow cytometry. cGAMP-MPs and 4×cGAMP-S treatments increased 5.1- and 4.9-fold of IFNγ+CD8+ T cells in serum at day 21 compared to the untreated group (FIG. 5A). […]

[2] = tested on: apoptotic cells in B16F10 tumors; assay: TUNEL staining of tumor sections; conditions: cGAMP-MPs single injection, cGAMP-S three injections
Description: Tumor sections (5 μm) were fixed with 4% paraformaldehyde, blocked with 3% bovine serum albumin, and permeabilized with 0.1% Triton X-100 in PBS. The tumor sections were then incubated with anti-CD8 alpha antibody (1:200, Abcam, cat. no. ab217344) at 4° C. overnight and goat anti-rabbit IgG H&L (Alexa Fluor® 488) (1:1000, Abcam, cat. no. ab150077) secondary antibody at room temperature for 1 h. Apoptotic tumor cells were stained using a in situ cell death detection kit (Roche) according to the manufacturer's instructions. Images were acquired on a Nikon A1R Ultra-Fast Spectral Scanning Confocal Microscope (Shinagawa, Tokyo).

4T1 lung metastasis = assay: Treatment of metastatic 4T1 model; conditions: day 34
Description: 2×10^5 4 T1 cells were injected into the mammary fat pad. Seven days after injection, tumor-bearing mice were divided into 3 experimental groups: untreated, 3×cGAMP-S, and 1×cGAMP-S plus cGAMP-MPs (10m of cGAMP-S, 5 PLGA-1 microdevices containing 10 μg of cGAMP, and 5 PLGA-2 microdevices containing 10 μg of cGAMP). The primary tumor was surgically removed at day 18 to extend survival. Mice were euthanized at day 34. Lung tissues were stained with India ink and fixed in Fekete's solution. Metastatic foci on the lung were counted under a microscope. Unstained lung tissues were fixed in formalin and stained by H&E. Quantitation of metastatic tumor cells of H&E stained sections was performed using an Aperio ImageScope using tuned positive pixel count algorithm. Briefly, input hue value in the positive pixel count algorithm was tuned to positively select normal lung tissues in red to orange range, while the tumors were negatively selected in purple. Percentage area of tumor metastasis per total lung area was calculated by the number of negative counts (purple)/the number of total counts (purple, orange, and red)×100%. Three H&E sections per lung at different depths were analyzed and averaged to obtain the percentage of tumor over the lung for one mouse. Four or five mice were analyzed for each group.

[3] = day 16, cGAMP-MPs single injection, cGAMP-S three injections

Nc1nc2c(ncn2[C@@H]2O[C@@H]3COP(=O)(O)O[C@H]4[C@@H](O)[C@H](n5cnc6c(N)ncnc65)O[C@@H]4COP(=O)(O)O[C@H]3[C@H]2O)c(=O)[nH]1 [cGAMP-S, 3′3′-cGAMP]
polarization of macrophages within the TME ([1]; 3 doses of soluble cGAMP or 1 dose of cGAMP-MPs): repolarization of M2-like macrophages in the tumor to M1-like phenotype
increase of CD8+/CD4+ T cell ratio [1, 3]: 1.2 fold
increase of TILs compared to untreated [1, 3]: approximately 23.5 fold
increase of surface expression of CD86 on tumor infiltrating DCs [1, 3]: 1.7 fold
increase of tumor-infiltrating CD4+ T cells [1, 3]: 23.6 fold
increase of tumor-infiltrating CD8+ T cells [1, 3]: 24.4 fold
infiltrating natural killer (NK) cells [1, 3]: increased
influx of DCs, basophils, monocytes and macrophages [1, 3]: promoted the influx
increase of IFNγ+CD8+ T cells in serum compared to untreated (IFNγ+CD8+ T cells; day 21, cGAMP-MPs single injection, cGAMP-S four injections): 4.9 fold
number of IFNγ+CD8+ T cells in serum (IFNγ+CD8+ T cells; day 28 versus day 21): remained at an identical level
apoptotic cells (TUNEL) [2]: greater abundance of apoptotic cells
number of metastatic foci on lung surfaces (4T1 lung metastasis; cGAMP-MPs single injection day 7, cGAMP-S days 7, 11, 15): significantly decreased
relative area of tumors in the lungs (4T1 lung metastasis; compared to untreated): reduced
